Assay results taken from US10654845B2, “2-(het)aryl-substituted fused bicyclic heterocycle derivatives as pesticides” (BAYER CROPSCIENCE AKTIENGESELLSCHAFT, priority 2015, dated 2020).
Read-outs that look alike come from different tables or passages of the source.

Tests used:
[1] = log P by HPLC on reversed-phase column (C18), EEC Directive 79/831 Annex V.A8
Excerpt: Called log P (HCOOH) in the table.
Called log P (neutral) in the table.

Phaedon cochleariae = Phaedon cochleariae spray test; type: in vivo; conditions: for pest or weed control at 500 g/ha: Phaedon cochleariae, 168 h, read-out: efficacy in %
Experimental: Phaedon cochleariae-Spray Test
(§1) Solvent: 78.0 parts by weight of acetone
(§2) • 1.5 parts by weight of dimethylformamide Emulsifier: alkylaryl polyglycol ether
(§3) To produce a suitable preparation of active compound, 1 part by weight of active compound is dissolved using the stated parts by weight of solvent and made up with water containing an emulsifier concentration of 1000 ppm until the desired concentration is attained. To produce further test concentrations, the preparation is diluted with emulsifier-containing water.
After 7 days, the efficacy in % is determined. 100% means that all the beetle larvae have been killed; 0% means that no beetle larvae have been killed.

Myzus persicae = Myzus persicae spray test (Chinese cabbage leaf discs); type: in vivo
Experimental: Myzus persicae Spray Test
Solvent: 78 parts by weight of acetone
as §2, §3
Discs of Chinese cabbage leaves (Brassica pekinensis) infested by all stages of the green peach aphid (Myzus persicae) are sprayed with an active compound preparation of the desired concentration.
After 6 days, the efficacy in % is determined. 100% means that all the aphids have been killed; 0% means that no aphids have been killed.

Tetranychus urticae = Tetranychus urticae spray test, OP-resistant; type: in vivo; conditions: after 6 days, spider mites killed
Experimental: Tetranychus urticae-Spray Test, OP-Resistant
as §1, §2, §3
Discs of bean leaves (Phaseolus vulgaris) infested with all stages of the greenhouse red spider mite (Tetranychus urticae) are sprayed with an active compound preparation of the desired concentration.
After 6 days, the efficacy in % is determined. 100% means that all the spider mites have been killed; 0% means that no spider mites have been killed.

[2] = reversed-phase HPLC column (C18), pH 2.7, logP-acidic, LC-MS acidic range, pH 2.7 (HCOOH), C18, 55° C.
[3] = reversed-phase HPLC column (C18), pH 7.8, log P (neutral), preparation examples, neutral range, pH 7.8
[4] = reversed-phase HPLC column (C18), pH 7.8, logP-neutral, LC-MS neutral range, pH 7.8, C18, 55° C.
[5] = 500 g/ha, after 7 days, beetle larvae killed
[6] = Myzus persicae, foliar, 144 h, 500 g/ha, after 6 days, aphids killed, read-out: efficacy in %
[7] = 500 g/ha, after 6 days, aphids killed
[8] = LC-MS acidic range, pH 2.7 (HCOOH), C18, 55° C.
[9] = LC-MS neutral range, pH 7.8, C18, 55° C.

## CCS(=O)(=O)c1ccc(C(=O)NC)nc1-c1nc2cc(C(F)(F)F)ncc2n1C [Example 31, 5-(Ethylsulphonyl)-N-methyl-6-[3-methyl-6-(trifluoromethyl)-3H-imidazo[4,5-c]pyridin-2-yl]pyridine-2-carboxamide]
[1]; [2]
  chromatographic logP: 2.01
[1]; [3]
  chromatographic logP: 1.96
[1]; [4]
  chromatographic logP: 1.96
Phaedon cochleariae; [5]
  pest or weed control at 500 g/ha: 100%
Myzus persicae; [6]
  pest or weed control at 500 g/ha: 100%
Tetranychus urticae; 500 g/ha
  efficacy in %: 100%

## CCS(=O)(=O)c1ccc(NC(=O)CS(C)(=O)=O)nc1-c1nc2cc(C(F)(F)F)ncc2n1C [Example 72]
[1]; pH 2.7
  logP-acidic: 1.87
[1]; pH 7.8
  logP-neutral: 1.92
Phaedon cochleariae; [5]
  efficacy in %: 100%
Myzus persicae; [7]
  efficacy in %: 100%

## CCS(=O)(=O)c1ccc(NC(=O)C[S+](C)[O-])nc1-c1nc2cc(C(F)(F)F)ncc2n1C (centres unmarked) [Example 70]
[1]; pH 2.7
  logP-acidic: 1.63
[1]; pH 7.8
  logP-neutral: 1.68
Phaedon cochleariae; [5]
  efficacy in %: 100%
Myzus persicae; [7]
  efficacy in %: 100%

## CCS(=O)(=O)c1ccc(/S(C)=N/C#N)nc1-c1nc2cc(C(F)(F)F)ncc2n1C (centres unmarked) [Example 43, [{5-(Ethylsulphonyl)-6-[3-methyl-6-(trifluoromethyl)-3H-imidazo[4,5-c]pyridin-2-yl]pyridin-2-yl}(methyl)-lambda4-sulphanylidene]cyanamide]
[1]; [2]
  chromatographic logP: 1.75
[1]; [3]
  chromatographic logP: 1.75
[1]; [4]
  chromatographic logP: 1.75
Phaedon cochleariae; [5]
  pest or weed control at 500 g/ha: 100%
Myzus persicae; [6]
  pest or weed control at 500 g/ha: 90%

## CCS(=O)(=O)c1ccc(NC(=O)C(F)F)nc1-c1nc2cc(C(F)(F)F)ncc2n1C [Example 24]
[1]; pH 2.7
  logP-acidic: 2.34
[1]; pH 7.8
  logP-neutral: 2.22
Phaedon cochleariae; [5]
  efficacy in %: 100%
Myzus persicae; [7]
  efficacy in %: 100%
Tetranychus urticae; 500 g/ha
  efficacy in %: 90%

## CCS(=O)(=O)c1ccc(NC(=O)CC2CC2)nc1-c1nc2cc(C(F)(F)F)ncc2n1C [Example 7]
[1]; pH 2.7
  logP-acidic: 2.71
[1]; pH 7.8
  logP-neutral: 2.66
Phaedon cochleariae; [5]
  efficacy in %: 100%
Myzus persicae; [7]
  efficacy in %: 90%

## CCS(=O)(=O)c1ccc(N(C)N)nc1-c1nc2cc(C(F)(F)F)ncc2n1C [Example 74]
[1]; [8]
  logP-acidic: 1.96
Phaedon cochleariae; [5]
  efficacy in %: 100%
Myzus persicae; [7]
  efficacy in %: 90%
Tetranychus urticae; 500 g/ha
  efficacy in %: 90%

## CCS(=O)(=O)c1ccc(N(C)NC)nc1-c1nc2cc(C(F)(F)F)ncc2n1C [Example 60, 1-[5-Ethylsulphonyl-6-[3-methyl-6-(trifluoromethyl)imidazo[4,5-c]pyridin-2-yl]-2-pyridyl]-1,2-dimethylhydrazine]
[1]; pH 2.7
  chromatographic logP: 2.37
[1]; pH 7.8
  chromatographic logP: 2.39
Phaedon cochleariae; [5]
  pest or weed control at 500 g/ha: 100%
Myzus persicae; Myzus persicae, foliar, 144 h, 100 g/ha, after 6 days, aphids killed, read-out: efficacy in %
  pest or weed control at 100 g/ha: 90%
Tetranychus urticae; 100 g/ha
  efficacy in %: 90%

## CCS(=O)(=O)c1ccc(C(=S)NC2CC2)nc1-c1nc2cc(C(F)(F)F)ncc2n1C [Example 36]
[1]; pH 2.7
  logP-acidic: 3.17
[1]; pH 7.8
  logP-neutral: 3.14
Phaedon cochleariae; [5]
  efficacy in %: 100%
Myzus persicae; [7]
  efficacy in %: 90%

## CCS(=O)(=O)c1ccc(NC)nc1-c1nc2cc(C(F)(F)F)ncc2n1C [Example 38]
[1]; [8]
  logP-acidic: 2.05
[1]; [9]
  logP-neutral: 2.03
Phaedon cochleariae; [5]
  efficacy in %: 100%
Myzus persicae; [7]
  efficacy in %: 90%

## CC[S+]([O-])c1ccc(NC(C)=O)nc1-c1nc2cc(C(F)(F)F)ncc2n1C (centres unmarked) [Example 9]
[1]; pH 2.7
  logP-acidic: 2.02
[1]; pH 7.8
  logP-neutral: 1.97
Phaedon cochleariae; [5]
  efficacy in %: 83%
Myzus persicae; [7]
  efficacy in %: 90%

## CCS(=O)(=O)c1ccc(NN)nc1-c1nc2cc(C(F)(F)F)ncc2n1C [Example 55]
[1]; [8]
  logP-acidic: 1.39
Phaedon cochleariae; [5]
  efficacy in %: 100%
Myzus persicae; [7]
  efficacy in %: 100%

## CCS(=O)(=O)c1ccc(C(=O)NC2CC2)nc1-c1nc2cc(C(F)(F)F)ncc2n1C [Example 33]
[1]; pH 2.7
  logP-acidic: 2.34
[1]; pH 7.8
  logP-neutral: 2.27
Phaedon cochleariae; 100 g/ha, after 7 days, beetle larvae killed
  efficacy in %: 83%
Tetranychus urticae; 500 g/ha
  efficacy in %: 90%

## CCS(=O)(=O)c1ccc(NC(=O)C(C)C[S+](C)[O-])nc1-c1nc2cc(C(F)(F)F)ncc2n1C (centres unmarked) [Example 57]
[1]; pH 2.7
  logP-acidic: 1.81
Phaedon cochleariae; [5]
  efficacy in %: 100%
Myzus persicae; [7]
  efficacy in %: 90%

## CCS(=O)(=O)c1ccc(C(=S)NC)nc1-c1nc2cc(C(F)(F)F)ncc2n1C [Example 34, 5-(Ethylsulphonyl)-N-methyl-6-[3-methyl-6-(trifluoromethyl)-3H-imidazo[4,5-c]pyridin-2-yl]pyridine-2-carbothioamide]
[1]; [2]
  chromatographic logP: 2.8
[1]; [3]
  chromatographic logP: 2.76
[1]; [4]
  chromatographic logP: 2.76
Myzus persicae; [6]
  pest or weed control at 500 g/ha: 90%
Tetranychus urticae; 500 g/ha
  efficacy in %: 100%

## CCS(=O)(=O)c1ccc(NC(=O)C(F)(F)F)nc1-c1nc2cc(C(F)(F)F)ncc2n1C [Example 3]
[1]; pH 2.7
  logP-acidic: 2.74
[1]; pH 7.8
  logP-neutral: 1.73
Phaedon cochleariae; [5]
  efficacy in %: 100%
Myzus persicae; [7]
  efficacy in %: 100%

## CCC(=O)Nc1ccc(S(=O)(=O)CC)c(-c2nc3cc(C(F)(F)F)ncc3n2C)n1 [Example 13]
[1]; pH 2.7
  logP-acidic: 2.33
[1]; pH 7.8
  logP-neutral: 2.28
Phaedon cochleariae; [5]
  efficacy in %: 100%
Myzus persicae; [7]
  efficacy in %: 90%

## CCS(=O)(=O)c1ccc(NC(=O)c2cscn2)nc1-c1nc2cc(C(F)(F)F)ncc2n1C [Example 66]
[1]; pH 2.7
  logP-acidic: 2.60
[1]; pH 7.8
  logP-neutral: 2.58
Phaedon cochleariae; [5]
  efficacy in %: 100%
Myzus persicae; 100 g/ha, after 6 days, aphids killed
  efficacy in %: 90%

## CCS(=O)(=O)c1ccc(NC(=O)C(F)(F)C(F)(F)F)nc1-c1nc2cc(C(F)(F)F)ncc2n1C [Example 4]
[1]; [8]
  logP-acidic: 3.17
[1]; [9]
  logP-neutral: 1.94
Phaedon cochleariae; [5]
  efficacy in %: 100%
Myzus persicae; [7]
  efficacy in %: 100%

## CCS(=O)(=O)c1ccc(NS(=O)(=O)C(F)(F)F)nc1-c1nc2cc(C(F)(F)F)ncc2n1C [Example 58]
[1]; pH 2.7
  logP-acidic: 2.37
[1]; pH 7.8
  logP-neutral: 1.20
Tetranychus urticae; 500 g/ha
  efficacy in %: 90%

## CCOCC(=O)Nc1ccc(S(=O)(=O)CC)c(-c2nc3cc(C(F)(F)F)ncc3n2C)n1 [Example 52]
[1]; pH 2.7
  logP-acidic: 2.64
[1]; pH 7.8
  logP-neutral: 2.51
Phaedon cochleariae; [5]
  efficacy in %: 100%
Myzus persicae; [7]
  efficacy in %: 100%

## CCS(=O)(=O)c1ccc(NC(=O)c2ccccc2)nc1-c1nc2cc(C(F)(F)F)ncc2n1C [Example 20]
[1]; pH 2.7
  logP-acidic: 2.98
Phaedon cochleariae; [5]
  efficacy in %: 83%
Myzus persicae; [7]
  efficacy in %: 90%

## CCS(=O)(=O)c1ccc(NC(=O)C(C)C)nc1-c1nc2cc(C(F)(F)F)ncc2n1C [Example 16, N-{5-(Ethylsulphonyl)-6-[3-methyl-6-(trifluoromethyl)-3H-imidazo[4,5-c]pyridin-2-yl]pyridin-2-yl}-2-methylpropanamide]
[1]; [2]
  chromatographic logP: 2.63
[1]; [3]
  chromatographic logP: 2.61
[1]; [4]
  chromatographic logP: 2.61
Phaedon cochleariae; [5]
  pest or weed control at 500 g/ha: 100%
Myzus persicae; [6]
  pest or weed control at 500 g/ha: 100%

## CCS(=O)(=O)c1ccc(NC(C)=S)nc1-c1nc2cc(C(F)(F)F)ncc2n1C [Example 63, N-[5-Ethylsulphonyl-6-[3-methyl-6-(trifluoromethyl)imidazo[4,5-c]pyridin-2-yl]-2-pyridyl]thioacetamide]
[1]; pH 2.7
  chromatographic logP: 2.6
[1]; pH 7.8
  chromatographic logP: 2.41
Phaedon cochleariae
  pest or weed control at 500 g/ha: 100%
Myzus persicae; Myzus persicae, foliar, 144 h, read-out: efficacy in %
  pest or weed control at 500 g/ha: 90%

## CC[S+]([O-])c1ccc(S(=O)(=O)CC)c(-c2nc3cc(C(F)(F)F)ncc3n2C)n1 (centres unmarked) [Example 37, 2-[6-(Ethylsulphinyl)-3-(ethylsulphonyl)pyridin-2-yl]-3-methyl-6-(trifluoromethyl)-3H-imidazo[4,5-c]pyridine]
[1]; [2]
  chromatographic logP: 2.03
[1]; [3]
  chromatographic logP: 2.02
[1]; [4]
  chromatographic logP: 2.02
Phaedon cochleariae; [5]
  pest or weed control at 500 g/ha: 100%
Myzus persicae; [6]
  pest or weed control at 500 g/ha: 90%
